The results in this text go back to US20030022821A1, “Bioactive peptides” (priority 1998, published 2003).

Assay [1] concerns Escherichia coli ATCC 25922. In kind it is cell-based. On the procedure: (§1) The bacterial strains used were: Escherichia coli ATCC 25922 and Staphylococcus aureus ATCC 25923. All strains were stored at −70° C. The bacteria were grown in 2% Bacto Peptone water (Difco 1807-17-4). All tests were performed with bacteria in mid-logarithmic growth phase. Determination of the minimum inhibitory concentration (MIC) of the peptides for bacterial strains were performed in 1% Bacto Peptone water. A standard microdilution technique with an inoculum of 2×10^6 CFU/ml was used. All assays were performed in triplets. Since the peptides are positively charged and therefore could adhere to the plastic wells, we controlled the actual concentration of the peptides in the solution by HPLC. There was no difference between the concentration of the peptides before or after adding the solution to the plastic wells.

Assay [2] has as its system Staphylococcus aureus ATCC 25923. In kind it is cell-based. The method, then: as §1

Structures are written as SMILES. ≈ marks a conversion by molar mass, not a printed value. Read-outs that look alike come from different tables or passages of the source. Peptide text beside a SMILES is read from it. * marks the point of attachment. Acm = CC(=O)NC*

`CSCC[C@H](NC(=O)[C@H](CCCNC(=N)N)NC(=O)[C@H](Cc1c[nH]c2ccccc12)NC(=O)[C@H](CCC(N)=O)NC(=O)[C@H](Cc1c[nH]c2ccccc12)NC(=O)[C@H](CCCNC(=N)N)NC(=O)[C@H](CCCNC(=N)N)NC(=O)[C@H](CSCNC(C)=O)NC(=O)[C@H](CCCCN)NC(=O)[C@@H](N)Cc1ccccc1)C(=O)N[C@@H](CCCCN)C(=O)N[C@@H](C)C(=O)N[C@@H](CC(C)C)C(=O)NCC(=O)N[C@@H](C)C(=O)O` [LFB A12] (H-FKC(Acm)RRWQWRMKALGA-OH): the “MIC E. coli” value in assay [1] (ATCC 25922) is 50 mg/L (≈ 24.9 µM). The “MIC S. aureus” value in assay [2] (ATCC 25923) was above 200 mg/L.

As to `CSCC[C@H](NC(=O)[C@H](CCCNC(=N)N)NC(=O)[C@H](Cc1c[nH]c2ccccc12)NC(=O)[C@H](CCC(N)=O)NC(=O)[C@H](Cc1c[nH]c2ccccc12)NC(=O)[C@H](CCCNC(=N)N)NC(=O)[C@H](CCCNC(=N)N)NC(=O)[C@H](CSCNC(C)=O)NC(=O)[C@H](CCCCN)NC(=O)[C@@H](N)Cc1ccccc1)C(=O)N[C@@H](CCCCN)C(=O)N[C@@H](CCCCN)C(=O)N[C@@H](C)C(=O)NCC(=O)N[C@@H](C)C(=O)O` [LFB A13] (H-FKC(Acm)RRWQWRMKKAGA-OH), in assay [1] (ATCC 25922), the “MIC E. coli” value worked out at 50 mg/L (≈ 24.7 µM). In assay [2] (ATCC 25923), the “MIC S. aureus” value was above 200 mg/L.

`CSCC[C@H](NC(=O)[C@H](CCCNC(=N)N)NC(=O)[C@H](Cc1c[nH]c2ccccc12)NC(=O)[C@H](CCC(N)=O)NC(=O)[C@H](Cc1ccc(-c2ccccc2)cc1)NC(=O)[C@H](CCCNC(=N)N)NC(=O)[C@H](CCCNC(=N)N)NC(=O)[C@H](CSCNC(C)=O)NC(=O)[C@H](CCCCN)NC(=O)[C@@H](N)Cc1ccccc1)C(=O)N[C@@H](CCCCN)C(=O)N[C@@H](CCCCN)C(=O)N[C@@H](CC(C)C)C(=O)NCC(=O)N[C@@H](C)C(=O)O` [LFB Bip6]: the “MIC E. coli” value in assay [1] (ATCC 25922) came to 25 mg/L (≈ 11.9 µM). Besides, the “MIC S. aureus” value in assay [2] (ATCC 25923) was determined as 25 mg/L (≈ 11.9 µM).

For `CSCC[C@H](NC(=O)[C@H](CCCNC(=N)N)NC(=O)[C@H](Cc1ccc(-c2ccccc2)cc1)NC(=O)[C@H](CCC(N)=O)NC(=O)[C@H](Cc1c[nH]c2ccccc12)NC(=O)[C@H](CCCNC(=N)N)NC(=O)[C@H](CCCNC(=N)N)NC(=O)[C@H](CSCNC(C)=O)NC(=O)[C@H](CCCCN)NC(=O)[C@@H](N)Cc1ccccc1)C(=O)N[C@@H](CCCCN)C(=O)N[C@@H](CCCCN)C(=O)N[C@@H](CC(C)C)C(=O)NCC(=O)N[C@@H](C)C(=O)O` [LFB Bip8], in assay [1] (ATCC 25922), the “MIC E. coli” value was 15 mg/L (≈ 7.13 µM). In addition, the “MIC S. aureus” value in assay [2] (ATCC 25923) stood at 15 mg/L (≈ 7.13 µM).

Turning to `CSCC[C@H](NC(=O)[C@H](CCCNC(=N)N)NC(=O)[C@H](Cc1c[nH]c2ccccc12)NC(=O)[C@H](CCC(N)=O)NC(=O)[C@H](Cc1c[nH]c2ccccc12)NC(=O)[C@H](CCCNC(=N)N)NC(=O)[C@H](Cc1ccccc1)NC(=O)[C@H](CSCNC(C)=O)NC(=O)[C@H](CCCCN)NC(=O)[C@@H](N)CCCCN)C(=O)N[C@@H](CCCCN)C(=O)N[C@@H](CCCCN)C(=O)N[C@@H](CC(C)C)C(=O)NCC(=O)N[C@@H](C)C(=O)O` [LFB F4K1] (H-KKC(Acm)FRWQWRMKKLGA-OH; N-terminus assumed), the “MIC E. coli ATCC 25922” value came to 20 mg/L in assay [1] (ATCC 25922) and 10 µM in assay [1] (Table 1, value in brackets). Besides, in assay [1] (Table 12), the “MIC E. coli” value was found to be 20 mg/L (≈ 9.82 µM). Further, the “MIC S. aureus ATCC 25923” value in assay [2] (ATCC 25923) is 200 mg/L; in assay [2] (Table 1, value in brackets), 100 µM. For the same compound, in assay [2] (Table 12), the “MIC S. aureus” value came to 200 mg/L (≈ 98.2 µM).

For `CSCC[C@H](NC(=O)[C@H](CCCNC(=N)N)NC(=O)[C@H](Cc1c[nH]c2ccccc12)NC(=O)[C@H](CCC(N)=O)NC(=O)[C@H](Cc1c[nH]c2ccccc12)NC(=O)[C@H](CCCNC(=N)N)NC(=O)[C@H](CCCNC(=N)N)NC(=O)[C@H](CSCNC(C)=O)NC(=O)[C@H](CCCCN)NC(=O)[C@@H](N)CCCCN)C(=O)N[C@@H](CCCCN)C(=O)N[C@@H](CCCCN)C(=O)N[C@@H](CC(C)C)C(=O)NCC(=O)N[C@@H](C)C(=O)O` [LFB K1] (H-KKC(Acm)RRWQWRMKKLGA-OH; N-terminus assumed), the “MIC E. coli ATCC 25922” value in assay [1] (ATCC 25922) turned out to be 60 mg/L; in assay [1] (Table 1, value in brackets), 30 µM. In addition, in assay [1] (Table 12), the “MIC E. coli” value is 60 mg/L (≈ 29.3 µM). Also, the “MIC S. aureus ATCC 25923” value in assay [2] (ATCC 25923) was determined as 100 mg/L; in assay [2] (Table 1, value in brackets), 50 µM. The “MIC S. aureus” value in assay [2] (Table 12) stood at 100 mg/L (≈ 48.9 µM).

Compound `CSCC[C@H](NC(=O)[C@H](CCCNC(=N)N)NC(=O)[C@H](Cc1c[nH]c2ccccc12)NC(=O)[C@H](CCC(N)=O)NC(=O)[C@H](Cc1c[nH]c2ccccc12)NC(=O)[C@H](CCC(N)=O)NC(=O)[C@H](Cc1ccc(O)cc1)NC(=O)[C@H](CSCNC(C)=O)NC(=O)[C@H](CCCCN)NC(=O)[C@@H](N)CO)C(=O)N[C@@H](CCCNC(=N)N)C(=O)N[C@@H](CCCCN)C(=O)N[C@@H](CC(C)C)C(=O)NCC(=O)N[C@@H](C)C(=O)O` [LFGW8, H2N-Ser-Lys-Cys-Tyr-Gln-Trp-Gln-Trp-Arg-Met-Arg-Lys-Leu-Gly-Ala-COOH] (H-SKC(Acm)YQWQWRMRKLGA-OH) had an MIC E. coli in assay [1] (Table 4) of 500 mg/L (≈ 248 µM). The same compound yielded an MIC S. aureus in assay [2] (Table 4, unit assumed) above 1000 mg/L.

In assay [1] (Table 4), `CSCC[C@H](NC(=O)[C@H](CC(N)=O)NC(=O)[C@H](Cc1c[nH]c2ccccc12)NC(=O)[C@H](CCC(N)=O)NC(=O)[C@H](Cc1c[nH]c2ccccc12)NC(=O)[C@H](CCC(N)=O)NC(=O)[C@H](Cc1ccccc1)NC(=O)[C@H](CSCNC(C)=O)NC(=O)[C@H](CCCCN)NC(=O)[C@@H](N)[C@@H](C)O)C(=O)N[C@@H](CCCNC(=N)N)C(=O)N[C@@H](CCCCN)C(=O)N[C@H](C(=O)N[C@@H](CCCNC(=N)N)C(=O)NCC(=O)O)C(C)C` [LFHW8, H2N-Thr-Lys-Cys-Phe-Gln-Trp-Gln-Trp-Asn-Met-Arg-Lys-Val-Arg-Gly-COOH] (H-TKC(Acm)FQWQWNMRKVRG-OH) displayed an MIC E. coli of 110 mg/L (≈ 53.9 µM). Also, the MIC S. aureus in assay [2] (Table 4, unit assumed) is above 1000 mg/L.

For the compound `CSCC[C@H](NC(=O)[C@H](CCCNC(=N)N)NC(=O)[C@H](Cc1c[nH]c2ccccc12)NC(=O)[C@H](CCC(N)=O)NC(=O)[C@H](Cc1c[nH]c2ccccc12)NC(=O)[C@H](CCCNC(=N)N)NC(=O)[C@H](CC(C)C)NC(=O)[C@H](CSCNC(C)=O)NC(=O)[C@H](CCCCN)NC(=O)[C@H](C)N)C(=O)N[C@@H](CCCNC(=N)N)C(=O)N[C@@H](CCCCN)C(=O)N[C@@H](Cc1ccc(O)cc1)C(=O)NCC(=O)NCC(=O)O` [LFM A1 R9 W8 Y13] (H-AKC(Acm)LRWQWRMRKYGG-OH; N-terminus and C-terminus assumed), the “MIC E. coli” value in assay [1] (ATCC 25922) stood at 50 mg/L (≈ 24.9 µM). Moreover, the “MIC S. aureus” value in assay [2] (ATCC 25923) stood at 200 mg/L (≈ 99.5 µM).

Regarding `CSCC[C@H](NC(=O)[C@H](CCC(=O)O)NC(=O)[C@H](Cc1c[nH]c2ccccc12)NC(=O)[C@H](CCC(N)=O)NC(=O)[C@H](Cc1c[nH]c2ccccc12)NC(=O)[C@H](CCCNC(=N)N)NC(=O)[C@H](CC(C)C)NC(=O)[C@H](CSCNC(C)=O)NC(=O)[C@H](CCCCN)NC(=O)[C@H](C)N)C(=O)N[C@@H](CCCNC(=N)N)C(=O)N[C@@H](CCCCN)C(=O)N[C@@H](Cc1ccc(O)cc1)C(=O)NCC(=O)NCC(=O)O` [LFM A1 W8 Y13] (H-AKC(Acm)LRWQWEMRKYGG-OH; N-terminus and C-terminus assumed), the “MIC E. coli” value in assay [1] (ATCC 25922) was determined as 500 mg/L (≈ 252 µM). Moreover, the “MIC S. aureus” value in assay [2] (ATCC 25923) is above 1000 mg/L.
